pIC50: −log10 of the molar value.
Tested on: Rh18 complex spheroid viability, percent test/control
Assay: Anticancer human tumor Rh18 cell line growth inhibition [Asc];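 also: spheroids exposed to compound for 7 days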;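 as to viability, T/C: 100% = DMSO vehicle control wells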
Conditions: for viability, T/C: stronger effect = lower value
In short: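 Spheroid model: tumor line + HUVEC + hMSC. Single agents and combinations; top conc. at/near clinical Cmax (10 microM if undetermined), half-log dilutions. DMSO stocks at 800-fold test concentration.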

[1] = curve of first compound, second compound 0.1 µM
[2] = curve of first compound, second compound 0.316 µM
[3] = curve of first compound, second compound 1 µM
[4] = second compound 0.1 µM, first compound 0.00316 µM
[5] = second compound 0.1 µM, first compound 0.01 µM
[6] = second compound 0.1 µM, first compound 0.0316 µM
[7] = second compound 0.1 µM, first compound 0.1 µM
[8] = second compound 0.1 µM, first compound 0.316 µM
[9] = second compound 0.1 µM, first compound 1 µM
[10] = second compound 0.316 µM, first compound 0.00316 µM
[11] = second compound 0.316 µM, first compound 0.01 µM
[12] = second compound 0.316 µM, first compound 0.0316 µM
[13] = second compound 0.316 µM, first compound 0.1 µM
[14] = second compound 0.316 µM, first compound 0.316 µM
[15] = second compound 0.316 µM, first compound 1 µM
[16] = second compound 1 µM, first compound 0.00316 µM
[17] = second compound 1 µM, first compound 0.01 µM
[18] = second compound 1 µM, first compound 0.0316 µM
[19] = second compound 1 µM, first compound 0.1 µM
[20] = second compound 1 µM, first compound 0.316 µM
[21] = second compound 1 µM, first compound 1 µM
[22] = curve of first compound, second compound 0.01 µM
[23] = curve of first compound, second compound 0.0316 µM
[24] = second compound 0.01 µM, first compound 0.0316 µM
[25] = second compound 0.01 µM, first compound 0.1 µM
[26] = second compound 0.0316 µM, first compound 0.0316 µM
[27] = second compound 0.0316 µM, first compound 0.1 µM

Question: What does the source list for `CCN1CCN(Cc2ccc(Nc3ncc(F)c(-c4cc(F)c5nc(C)n(C(C)C)c5c4)n3)nc2)CC1` + Cc1c(S(C)(=O)=O)c(-c2cc(F)cc(N3CCN(c4ccc(NS(=O)(=O)c5ccc(NC(CCN6CCC(C(=O)OCCCP(=O)(O)O)CC6)CSc6ccccc6)c(S(=O)(=O)C(F)(F)F)c5)cc4)CC3)c2)c(-c2ccc(Cl)cc2)n1C(C)C?
Answer: pIC50 [1]: > 8.50; pIC50 [2]: > 8.50; pIC50 [3]: > 8.50; pIC50 (curve of first compound, second compound 3.16 µM): > 8.50; pIC50 (curve of first compound, second compound 10 µM): > 8.50; viability, T/C [4]: 12.9%; viability, T/C [5]: 10.8%; viability, T/C [6]: 12.1%; viability, T/C [7]: 10.3%; viability, T/C [8]: 17.6%; viability, T/C [9]: 16.5%; viability, T/C [10]: 9.27%; viability, T/C [11]: 8.57%; viability, T/C [12]: 8.42%; viability, T/C [13]: 8.33%; viability, T/C [14]: 9.57%; viability, T/C [15]: 13.1%; viability, T/C [16]: 7.77%; viability, T/C [17]: 7.58%; viability, T/C [18]: 7.78%; viability, T/C [19]: 7.11%; viability, T/C [20]: 8.27%; viability, T/C [21]: 11.2%; viability, T/C (second compound 3.16 µM, first compound 0.00316 µM): 5.69%; viability, T/C (second compound 3.16 µM, first compound 0.01 µM): 6.84%; viability, T/C (second compound 3.16 µM, first compound 0.0316 µM): 6.29%; viability, T/C (second compound 3.16 µM, first compound 0.1 µM): 6.51%; viability, T/C (second compound 3.16 µM, first compound 0.316 µM): 6.86%; viability, T/C (second compound 3.16 µM, first compound 1 µM): 8.35%; viability, T/C (second compound 10 µM, first compound 0.00316 µM): 4.28%; viability, T/C (second compound 10 µM, first compound 0.01 µM): 4.29%; viability, T/C (second compound 10 µM, first compound 0.0316 µM): 5.21%; viability, T/C (second compound 10 µM, first compound 0.1 µM): 7.08%; viability, T/C (second compound 10 µM, first compound 0.316 µM): 6.28%; viability, T/C (second compound 10 µM, first compound 1 µM): 10.4%

Question: For `Cc1c(S(C)(=O)=O)c(-c2cc(F)cc(N3CCN(c4ccc(NS(=O)(=O)c5ccc(NC(CCN6CCC(C(=O)OCCCP(=O)(O)O)CC6)CSc6ccccc6)c(S(=O)(=O)C(F)(F)F)c5)cc4)CC3)c2)c(-c2ccc(Cl)cc2)n1C(C)C` (stereo not drawn), which viability, T/C (compound 0.1 µM) is on record?
Answer: 14.1% [middle of 14 runs]

Question: And the viability, T/C (compound 0.316 µM)?
Answer: 10% [middle of 14 runs]

Question: And the viability, T/C (compound 1 µM)?
Answer: 9.12% [middle of 13 runs]

Question: And the viability, T/C (compound 3.16 µM)?
Answer: 6.19% [middle of 14 runs]

Question: And the viability, T/C (compound 10 µM)?
Answer: 5.39% [middle of 14 runs]

Question: What about the pIC50 (compound alone, run of 10/11/2022) of the same compound?
Answer: > 7.00

Question: How did the pIC50 (curve of first compound, second compound 0.00316 µM) turn out when `C#Cc1c(F)ccc2cc(O)cc(-c3ncc4c(N5CC6CCC(C5)N6)nc(OCC56CCCN5CC(F)C6)nc4c3F)c12` (stereo not drawn) + CNC(C)C(=O)NC1CN(S(=O)(=O)c2cccc(S(=O)(=O)N3CCC4CCC(C(=O)NC(c5ccccc5)c5ccccc5)N4C(=O)C(NC(=O)C(C)NC)C3)c2)CCC2CCC(C(=O)NC(c3ccccc3)c3ccccc3)N2C1=O was run?
Answer: 5.29

Question: And the pIC50 [22]?
Answer: 5.37

Question: What about the pIC50 [23] of the same compound?
Answer: 5.44

Question: And the pIC50 [1]?
Answer: > 7.50

Question: What about the pIC50 [2] of the same compound?
Answer: 5.75

Question: And the pIC50 [3]?
Answer: 5.47

Question: And the viability, T/C (second compound 0.00316 µM, first compound 0.0316 µM)?
Answer: 67.1%

Question: And the viability, T/C (second compound 0.00316 µM, first compound 0.1 µM)?
Answer: 60.7%

Question: What about the viability, T/C (second compound 0.00316 µM, first compound 0.316 µM) of the same compound?
Answer: 64.5%

Question: What about the viability, T/C (second compound 0.00316 µM, first compound 1 µM) of the same compound?
Answer: 65%

Question: And the viability, T/C (second compound 0.00316 µM, first compound 3.16 µM)?
Answer: 70.7%

Question: And the viability, T/C (second compound 0.00316 µM, first compound 10 µM)?
Answer: 27.7%

Question: What about the viability, T/C [24] of the same compound?
Answer: 57.4%

Question: What about the viability, T/C [25] of the same compound?
Answer: 60.7%

Question: And the viability, T/C (second compound 0.01 µM, first compound 0.316 µM)?
Answer: 50.2%

Question: And the viability, T/C (second compound 0.01 µM, first compound 1 µM)?
Answer: 74.8%

Question: What about the viability, T/C (second compound 0.01 µM, first compound 3.16 µM) of the same compound?
Answer: 63.9%

Question: What about the viability, T/C (second compound 0.01 µM, first compound 10 µM) of the same compound?
Answer: 18.9%

Question: What about the viability, T/C [26] of the same compound?
Answer: 63.2%

Question: What about the viability, T/C [27] of the same compound?
Answer: 40.7%

Question: And the viability, T/C (second compound 0.0316 µM, first compound 0.316 µM)?
Answer: 52.2%

Question: What about the viability, T/C (second compound 0.0316 µM, first compound 1 µM) of the same compound?
Answer: 55.3%

Question: What about the viability, T/C (second compound 0.0316 µM, first compound 3.16 µM) of the same compound?
Answer: 61.5%

Question: And the viability, T/C (second compound 0.0316 µM, first compound 10 µM)?
Answer: 17.6%

Question: What about the viability, T/C [6] of the same compound?
Answer: 40.1%

Question: What about the viability, T/C [7] of the same compound?
Answer: 52.3%

Question: And the viability, T/C [8]?
Answer: 40.3%

Question: And the viability, T/C [9]?
Answer: 61.9%

Question: And the viability, T/C (second compound 0.1 µM, first compound 3.16 µM)?
Answer: 50.9%

Question: What about the viability, T/C (second compound 0.1 µM, first compound 10 µM) of the same compound?
Answer: 14.1%

Question: And the viability, T/C [12]?
Answer: 74.4%

Question: And the viability, T/C [13]?
Answer: 69%

Question: And the viability, T/C [14]?
Answer: 58.9%

Question: And the viability, T/C [15]?
Answer: 47.2%

Question: And the viability, T/C (second compound 0.316 µM, first compound 3.16 µM)?
Answer: 54.4%

Question: What about the viability, T/C (second compound 0.316 µM, first compound 10 µM) of the same compound?
Answer: 11.8%

Question: And the viability, T/C [18]?
Answer: 78.2%

Question: What about the viability, T/C [19] of the same compound?
Answer: 50.2%

Question: What about the viability, T/C [20] of the same compound?
Answer: 45%

Question: And the viability, T/C [21]?
Answer: 51.6%

Question: And the viability, T/C (second compound 1 µM, first compound 3.16 µM)?
Answer: 53.3%

Question: What about the viability, T/C (second compound 1 µM, first compound 10 µM) of the same compound?
Answer: 10.5%

Question: How did the pIC50 [22] turn out when `Cn1ncnc1[C@H]1c2n[nH]c(=O)c3cc(F)cc(c23)N[C@@H]1c1ccc(F)cc1` + CNC(C)C(=O)NC1CN(S(=O)(=O)c2cccc(S(=O)(=O)N3CCC4CCC(C(=O)NC(c5ccccc5)c5ccccc5)N4C(=O)C(NC(=O)C(C)NC)C3)c2)CCC2CCC(C(=O)NC(c3ccccc3)c3ccccc3)N2C1=O was run?
Answer: 8.43

Question: What about the pIC50 [23] of the same compound?
Answer: 8.82

Question: What about the pIC50 [1] of the same compound?
Answer: > 9.50

Question: What about the pIC50 [2] of the same compound?
Answer: 9.39

Question: And the pIC50 [3]?
Answer: 9.23

Question: And the viability, T/C (second compound 0.01 µM, first compound 0.000316 µM)?
Answer: 54.4%

Question: What about the viability, T/C (second compound 0.01 µM, first compound 0.001 µM) of the same compound?
Answer: 64.3%

Question: What about the viability, T/C (second compound 0.01 µM, first compound 0.00316 µM) of the same compound?
Answer: 53.5%

Question: And the viability, T/C (second compound 0.01 µM, first compound 0.01 µM)?
Answer: 26.7%

Question: What about the viability, T/C [24] of the same compound?
Answer: 18.4%

Question: And the viability, T/C [25]?
Answer: 19.2%

Question: And the viability, T/C (second compound 0.0316 µM, first compound 0.000316 µM)?
Answer: 62.7%

Question: What about the viability, T/C (second compound 0.0316 µM, first compound 0.001 µM) of the same compound?
Answer: 58.1%

Question: And the viability, T/C (second compound 0.0316 µM, first compound 0.00316 µM)?
Answer: 36.5%

Question: What about the viability, T/C (second compound 0.0316 µM, first compound 0.01 µM) of the same compound?
Answer: 23.1%

Question: What about the viability, T/C [26] of the same compound?
Answer: 18.7%

Question: What about the viability, T/C [27] of the same compound?
Answer: 21.3%

Question: And the viability, T/C (second compound 0.1 µM, first compound 0.000316 µM)?
Answer: 39.4%

Question: And the viability, T/C (second compound 0.1 µM, first compound 0.001 µM)?
Answer: 47.7%

Question: What about the viability, T/C [4] of the same compound?
Answer: 34.6%

Question: And the viability, T/C [5]?
Answer: 18%

Question: What about the viability, T/C [6] of the same compound?
Answer: 14.8%

Question: What about the viability, T/C [7] of the same compound?
Answer: 15%

Question: What about the viability, T/C (second compound 0.316 µM, first compound 0.000316 µM) of the same compound?
Answer: 55.7%

Question: What about the viability, T/C (second compound 0.316 µM, first compound 0.001 µM) of the same compound?
Answer: 29.6%

Question: What about the viability, T/C [10] of the same compound?
Answer: 25.5%

Question: And the viability, T/C [11]?
Answer: 19.6%

Question: What about the viability, T/C [12] of the same compound?
Answer: 12.4%

Question: And the viability, T/C [13]?
Answer: 20%

Question: And the viability, T/C (second compound 1 µM, first compound 0.000316 µM)?
Answer: 49.1%

Question: What about the viability, T/C (second compound 1 µM, first compound 0.001 µM) of the same compound?
Answer: 51.2%

Question: And the viability, T/C [16]?
Answer: 42.9%

Question: What about the viability, T/C [17] of the same compound?
Answer: 26.1%

Question: And the viability, T/C [18]?
Answer: 18.4%

Question: And the viability, T/C [19]?
Answer: 14.2%

Reference: PubChem BioAssay AID1963431 (Molecular Pharmacology Branch, DTP, NCI, 2024)
